Source: patent US12370164B2, “Chlorogenic acid composition for promoting a healthy body weight” (Vidya Herbs, Inc., priority 2017, dated 2025)
Values joined by “and” are separate entries in the source; they are usually repeats but may differ in a detail not shown here. Equal values may be shown once.

Legend:
[1] = DPPH radical scavenging assay
Experimental: The free radical scavenging capacity of the test sample was determined using DPPH scavenging assay. DPPH solution was prepared in 95% methanol. Freshly prepared DPPH solution was taken in test tubes and different concentration of test samples were added and incubated for 20 min. The absorbance was read at 517 nm using a spectrophotometer. Blank was prepared containing the same volume of reaction mixture without any tested samples. The percentage of scavenging was calculated using the formula: % Scavenging=Ac−As/Ac×100 Where AC was the absorbance of the control (blank) and AS was the absorbance in the presence of the composition (Braca et al., 2001). Results

[2] = Superoxide anion scavenging activity
Experimental: Prepared all the solutions in this experiment using phosphate buffer (pH 7.4). Added 1 ml of NBT (156 μM), 1 ml of NADH (468 μM) and 3 ml of test samples to all test tubes. The reaction was started by adding 100 ml of PMS (60 μM) and incubated the mixture at 25° C. for 5 min followed by measurement of absorbance at 560 nm. The percentage of scavenging was calculated using formula: % Scavenging=Ac−As/Ac×100 Where AC was the absorbance of the control (blank) and As was the absorbance in the presence of the composition.

[3] = tested on: Salmonella typhimurium TA 100; type: cell-based; settings: TA 100, +s9, positive control, concentration not given
Description: This assay helps to identify substances that can produce genetic damage that leads to gene mutations. Mutant strains of Salmonella typhimurium that are used in AMES assay cannot synthesize histidine, and are very susceptible to additional mutations because they lack the normal repair mechanisms found in bacteria. These mutant strains are more permeable than wild-type bacteria to external chemicals, including potential mutagens. In order for these cells to survive on a plate that lacks histidine, they must regain the ability to synthesize histidine by undergoing another mutation that corrects the original mutation that prevented the production of the missing enzyme. This type of mutation is known as a back mutation, or reversion, because this second mutation returns the mutant to the wild-type (prototrophic) phenotype. This reversion can happen spontaneously due to incorrect DNA replication or as the result of a mutagen.
In this assay specific strains of the bacteria Salmonella typhimurium (TA 98, TA 100) were used to detect mutations. […]
Briefly, 0.5 ml of S9 mix (or 0.1 M phosphate buffer, pH 7.4), 0.1 ml of bacterial culture and 0.1 ml of test solution (or solvent) were added to each tube. […] After incubation for approximately 48 h the revertant colonies were counted.

[4] = tested on: Salmonella typhimurium TA 98; test: Ames Salmonella mutagenicity test, strain TA 98; type: cell-based; settings: TA 98, +s9, positive control, concentration not given
calf thymus DNA = test: Protective effect on DNA scission induced by hydroxyl radical
Experimental: In this assay hydroxyl radicals are typically generated within a mixture of ascorbic acid, H2O2 and Fe3+-ethylenediaminetetracetic acid (EDTA); those radicals that are not scavenged by other components of the reaction mixture will eventually attack deoxyribose, thus degrading it into a series of fragments.
The experiment was conducted using calf thymus DNA. Briefly, the sample was dissolved in ethanol at 1 mg/mL. 50 μl of different concentration of sample was then separately taken into mini tubes followed by addition of 400 μL of phosphate buffer (0.2 mol/L, pH 7.4). Subsequently, 50 μL DNA sodium, 50 μL H2O2, 50 μL FeCl3 and 50 μL Na2EDTA (1 mmol/L) were added. The reaction was initiated by adding 50 μL ascorbic acid (18 mmol/L) and the total volume of the reaction mixture was adjusted to 800 μL with buffer. After incubation in a water bath at 55° C. for 20 min, the reaction was terminated by adding 250 μL TCA.
The color was then developed by addition of 150 μL of TBA and heating in an oven at 105° C. for 15 min. The mixture was cooled and absorbance was measured at 532 nm against the buffer (as blank). The percent of protection against DNA damage is expressed Protective effect %=(1−A/A0)×100 Where A0 is the absorbance of the mixture without sample, and A is the absorbance of the mixture with sample. Results

## O=C1O[C@H]([C@@H](O)CO)C(O)=C1O [Ascorbic acid]
[1]; 20 μg/ml
  % inhibition (DPPH scavenging): 83.21%
  Absorbance @517 nm: 0.046
[1]; 40 μg/ml
  % inhibition (DPPH scavenging): 90.88%
  Absorbance @517 nm: 0.025
[1]; 60 μg/ml
  % inhibition (DPPH scavenging): 94.53%
  Absorbance @517 nm: 0.015
[1]; 80 μg/ml
  % inhibition (DPPH scavenging): 94.89%
  Absorbance @517 nm: 0.014
[1]; 100 μg/ml
  % inhibition (DPPH scavenging): 96.72%
  Absorbance @517 nm: 0.009
[1]; 100 μg/ml, listed as ascorbic acid
  % inhibition (DPPH scavenging): 96.71%
[2]; 20 μg/ml
  % inhibition (superoxide scavenging): 84.80%
  Absorbance @517 nm (superoxide scavenging): 0.038
[2]; 40 μg/ml
  % inhibition (superoxide scavenging): 85.20%
  Absorbance @517 nm (superoxide scavenging): 0.037
[2]; 60 μg/ml
  % inhibition (superoxide scavenging): 88.40%
  Absorbance @517 nm (superoxide scavenging): 0.029
[2]; 80 μg/ml
  % inhibition (superoxide scavenging): 89.20%
  Absorbance @517 nm (superoxide scavenging): 0.027
[2]; 100 μg/ml
  % inhibition (superoxide scavenging): 89.60%
  Absorbance @517 nm (superoxide scavenging): 0.026

## Nc1ccc2cc3ccccc3cc2c1 [2AF, 2-aminoanthracene]
[3]
  Revertant colonies/plate: 2737 ± 4.9 colonies/plate
[4]
  Revertant colonies/plate: 1560 ± 3.53 colonies/plate

## COc1ccc(O)c(C(C)(C)C)c1 [BHA]
Calf thymus DNA; 10 μg/ml
  % protective effect against DNA damage: 15.79 ± 0.89%
Calf thymus DNA; 20 μg/ml
  % protective effect against DNA damage: 19.25 ± 1.09%
Calf thymus DNA; 40 μg/ml
  % protective effect against DNA damage: 32.50 ± 2.12%
Calf thymus DNA; 60 μg/ml
  % protective effect against DNA damage: 39.16 ± 0.33%
Calf thymus DNA; 80 μg/ml
  % protective effect against DNA damage: 43.04 ± 0.29%
Calf thymus DNA; 100 μg/ml
  % protective effect against DNA damage: 51.37% and 51.37 ± 4.06%
